In brackets after ≈: the same amount, converted by molar mass. Like-named read-outs stand apart in the source and are kept apart here.
Key:
[1] = Kinetic solubility (method of Hoelke et al.); format: physicochemical
From the text: Park et al. have shown that the degree of saturation of fatty acids exerts a profound impact on permeability of fatty acylated peptides—a higher degree of unsaturation results in higher permeability.[43] PUFA can also induce significant biophysical perturbations upon incorporation into membrane phospholipids.[67],[68] […] Given that the hydrophobicity of fatty acyl residues in general reduces as the number of unsaturated sites increases,[69],[70] we decided to ascertain how such structural modifications translate to the kinetic solubility of the molecule as a whole. […] The acylation with PUFA thus provides an elegant, albeit counterintuitive, approach, by which permeability of the molecule as a whole as well as its capacity for liposomal encapsulation can be enhanced without completely abolishing its aqueous solubility.

hNOD2 = biological target: T1, hNOD2 (Homo sapiens, UniProt Q9HC29); assay: HEK-Blue NOD2 cell line reporter assay (NF-κB-inducible SEAP); format: cell-based; details: for EC50: HEK-Blue NOD2 cells, 18 h
T1 construct: host or cells: HEK-Blue NOD2 cells (HEK293)
Procedure, shortened: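 HEK293 cells cotransfected with hNOD2 and an NF-κB-inducible SEAP reporter, exposed to compounds dose-dependently for 18 h at 37 °C, 5% CO2. SEAP read by absorbance at 630 nm; EC50 values from dose-response, duplicate wells, at least two independent biological replicates.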

K562 cancer cells = assay: PBMC cytotoxicity against K562 cancer cells (flow cytometry); format: cell-based; details: for cytotoxicity of PBMCs against K562 cells, cotreatment with LPS (relative to negative control) / Cytotoxicity (ratio to control), + LPS: 10 μM + LPS 1 μg/mL; for cytotoxicity of PBMCs against K562 cells, cotreatment with LPS (relative to negative control) / enhancement of cytotoxicity of PBMCs against K562 cells (relative to negative control): 18 h, then 4 h coincubation; for cytotoxicity of PBMCs against K562 cells, cotreatment with LPS (relative to negative control): 40:1; for Cytotoxicity (ratio to control), + LPS / Cytotoxicity (ratio to control): Table S2; for Cytotoxicity (ratio to control) / enhancement of cytotoxicity of PBMCs against K562 cells (relative to negative control): alone: compounds 10 μM, LPS 1 μg/mL, IL-2 200 U/mL; for enhancement of cytotoxicity of PBMCs against K562 cells (relative to negative control): effector:target 40:1
Description: In this study, we investigated the potential of desmuramylpeptides, both alone and in combination with LPS, to enhance the cytotoxic activity of PBMCs against cancer cells employing a flow-cytometry-based cytotoxicity assay based on coincubation of preactivated PBMCs with fluorescently labeled K562 cancer cells.[82] Among the diverse subpopulations within PBMCs, natural killer (NK) cells play a pivotal role in detecting and eliminating cancer cells. NOD2-mediated NK cell activity against cancer cells arises from both direct NOD2 agonist elicited cytolytic activity of NK cells[83] and indirect activation through cytokine release by other NOD2-responsive cells, such as monocytes, which comprise approximately 10% of PBMCs; such interactions potentially reinforce the immune response.[84] […] To that end, we utilized the entire PBMC population as effector cells rather than isolated NK cells, to mimic conditions more closely resembling the in vivo environment while K562 chronic myelogenous leukemia cells were used as the target cells in a 40:1 effector to target cell ratio.[87]
The PBMC cytotoxicity assays utilizing K562 cells were conducted following previously established methods, with some adjustments.[82] […] Meanwhile, K562 cells were stained with CFSE (Invitrogen, Carlsbad, CA, USA), washed twice with complete medium, and then added (1 × 10^4 cells per well) to the pretreated PBMCs to achieve a final effector cell to target tumor cell ratio of 40:1. Following a 4-h coincubation period at 37 °C with 5% CO2, cells were stained with Sytox blue dead cell stain (Invitrogen) and analyzed using an Attune NxT flow cytometer (Thermo Fisher Scientific, Waltham, MA, USA) along with FlowJo software (Tree Star, Inc., Ashland, OR, USA). Cells positive for both CFSE and Sytox blue were designated as dead K562 cells. PBMCs alone and CFSE-labeled cancer cells alone were also exposed to the compounds at equivalent concentrations and stained with Sytox blue to assess any direct cytotoxic effects of the compounds on PBMCs and cancer cells separately. Each experiment was conducted in duplicate and repeated in three independent biological replicates. Statistical analysis was performed using one-way ANOVA followed by Dunnett’s multiple comparisons test.

human PBMCs = assay: Cytokine release from peripheral blood mononuclear cells (LEGENDplex panel); format: cell-based; details: 18 h
From the text: The immunomodulatory effects of the selected desmuramylpeptides were examined in human primary peripheral blood mononuclear cells (PBMCs). This diverse mixture of immune cells provided a platform to investigate the effects of these NOD2 agonists within a physiologically relevant environment, encompassing other NOD2-interacting and downstream signaling proteins. […] Given that NOD2 activation often modulates the Toll-like receptor (TLR)-induced cytokine responses, we investigated the impact of combining desmuramylpeptides with lipopolysaccharide (LPS), a well-known TLR4 agonist, on cytokine secretion.[76]−[78]
The elicited cytokine profiles thus broadly reflect the structure–activity relationships obtained in the reporter gene assays.
Peripheral blood mononuclear cells were plated at a density of 1 × 10^6 cells/mL in 48-well plates containing 500 μL of growth medium. Cells were then treated with the compounds (2 μM) or the corresponding vehicle (0.1% DMSO), both in the absence and presence of LPS (10 ng/mL). Following an 18 h incubation period at 37 °C with 5% CO2, cell-free supernatants were collected and stored at −80 °C until analysis. […] Standard curves were constructed using recombinant cytokines provided in the kit. Data analysis was performed using Biolegend software Qognit and Prism (GraphPad, San Diego, CA, USA) software. The experiments were independently replicated four times. Statistical significance was determined using two-way analysis of variance (ANOVA) followed by Tukey’s multiple comparisons test.

BMDC/T-cell cocultures = assay: T cell cytokine release in BMDC/T-cell cocultures; format: cell-based, C57BL/6 mouse; details: 10 μM; for levels of IL-6 and TNF-α secreted by CD4+ T cells: 72 h coculture
Description: For this study, we narrowed down the selection of suitable desmuramylpeptides even further. In order to assess the adjuvant potential of selected desmuramylpeptides with regard to their effect on DC-mediated activation of CD4^+ and CD8^+ T cells, we conducted an ex vivo antigen-presentation assay utilizing C57BL/6 mouse bone marrow-derived DCs (BMDCs). Upon stimulation with desmuramylpeptides at 10 μM, in conjunction with ovalbumin soluble protein (50 μg/mL), BMDCs were cocultured with carboxyfluorescein succinimidyl ester (CFSE)-labeled naïve ovalbumin-specific CD4^+ or CD8^+ T cells, which were isolated from splenocytes of OT II and OT I transgenic mice, respectively. […] Additionally, we investigated how the priming of T cells elicited by the tested compounds impacted the cytokine profiles secreted in BMDC/T-cell cocultures.
Following 72 h of coincubation with BMDCs (pretreated with desmuramylpeptides [10 μM] and washed), supernatants from CD4^+ and CD8^+ T cells were harvested as previously described. […] Standard curves were constructed using recombinant cytokines provided in the kit. Data analysis was conducted using FlowJo (Tree Star, Inc., Ashland, OR, USA) and Prism (GraphPad, San Diego, CA, USA) software. Each experiment was performed in duplicate and replicated in two independent biological runs.

[2] = NF-κB transcriptional activity (SEAP), read-out: EC50 (nM), NOD2 agonistic activity

T1 sequence (Q9HC29 whole entry): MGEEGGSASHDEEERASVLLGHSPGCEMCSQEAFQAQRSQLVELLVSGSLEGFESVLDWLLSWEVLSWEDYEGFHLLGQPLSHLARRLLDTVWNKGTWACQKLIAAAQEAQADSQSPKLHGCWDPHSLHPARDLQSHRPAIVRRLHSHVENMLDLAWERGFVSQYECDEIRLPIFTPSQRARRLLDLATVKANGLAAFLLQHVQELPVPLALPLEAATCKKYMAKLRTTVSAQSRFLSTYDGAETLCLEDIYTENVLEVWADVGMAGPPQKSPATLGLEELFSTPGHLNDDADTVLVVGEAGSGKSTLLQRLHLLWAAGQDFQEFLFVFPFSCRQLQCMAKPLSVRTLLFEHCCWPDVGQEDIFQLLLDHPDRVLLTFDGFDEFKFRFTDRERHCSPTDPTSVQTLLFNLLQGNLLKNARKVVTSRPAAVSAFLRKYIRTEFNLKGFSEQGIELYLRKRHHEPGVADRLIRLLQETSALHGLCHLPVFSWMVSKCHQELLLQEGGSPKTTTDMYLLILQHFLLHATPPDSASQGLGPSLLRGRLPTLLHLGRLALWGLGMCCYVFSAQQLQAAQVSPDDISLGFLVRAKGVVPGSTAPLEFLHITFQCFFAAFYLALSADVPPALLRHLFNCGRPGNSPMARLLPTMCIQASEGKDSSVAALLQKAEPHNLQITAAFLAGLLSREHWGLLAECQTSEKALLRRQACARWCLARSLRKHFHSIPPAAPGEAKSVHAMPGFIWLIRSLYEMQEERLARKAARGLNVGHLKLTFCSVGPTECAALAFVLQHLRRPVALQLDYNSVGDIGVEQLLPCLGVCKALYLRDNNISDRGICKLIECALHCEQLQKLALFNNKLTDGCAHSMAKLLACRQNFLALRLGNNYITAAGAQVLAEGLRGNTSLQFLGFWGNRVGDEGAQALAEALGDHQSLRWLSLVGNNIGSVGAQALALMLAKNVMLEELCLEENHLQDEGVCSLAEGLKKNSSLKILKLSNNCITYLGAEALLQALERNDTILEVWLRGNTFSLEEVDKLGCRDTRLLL

Row | SMILES | solubility kinetic [1] | enhancement in potency compared to 1 (hNOD2; EC50 ratio versus unsubstituted counterpart 1) | EC50 (hNOD2; [2]) | cytotoxicity of PBMCs against K562 cells, cotreatment with LPS (relative to negative control) (K562 cancer cells) | Cytotoxicity (ratio to control), + LPS (K562 cancer cells) | Cytotoxicity (ratio to control) (K562 cancer cells) | enhancement of cytotoxicity of PBMCs against K562 cells (relative to negative control) (K562 cancer cells) | levels of LPS-induced IL-10 (human PBMCs; 2 μM + LPS 10 ng/mL) | production of MCP-1 and IFN-γ compared to the MDP/LPS combination (human PBMCs; 2 μM + LPS 10 ng/mL) | secretion of IL-1β, IL-10 and TGFβ compared to the MDP/LPS combination (human PBMCs; 2 μM + LPS 10 ng/mL) | levels of IL-6 and TNF-α secreted by CD4+ T cells (BMDC/T-cell cocultures) | stimulating IL-2 and IL-9 production (BMDC/T-cell cocultures; CD4+ T cell coculture, 72 h) | diminished solubility compared to parent compound 1 ([1]; kinetic solubility) | production of the Th9-associated cytokine IL-9 (BMDC/T-cell cocultures; CD4+ T cell coculture, 72 h) | EC50 (hNOD2; read-out: EC50, NOD2 agonistic activity (text)) | production of IL-12p70 and TNF-α compared to MDP (human PBMCs; 2 μM + LPS 10 ng/mL) | capacity to induce IP-10 and IFN-γ secretion (human PBMCs; 2 μM + LPS 10 ng/mL, versus MDP) | production of proinflammatory cytokines and chemokines including IL-6, IL-8 and MCP-1 (human PBMCs; 2 μM alone (no LPS))
1 | CCCC(=O)Oc1ccc(/C=C/C(=O)NCC(=O)N[C@H](C(=O)N[C@H](CCC(=O)OCC)C(=O)OCC)C(C)C)cc1OC [Compound 3, Diethyl ((E)-3-(4-(Butyryloxy)-3-methoxyphenyl)acryloyl)glycyl-L-valyl-D-glutamate] | 178 µM (≈ 108 µg/mL) | ~17 fold | 4.6 ± 1.6 nM | 0.98 fold | 0.98 ± 0.18 | 1.04 ± 0.06 | no activity | amplified | significantly diminished production | increased secretion | slightly increased | most notable |  |  |  |  |  | 
2 | CC/C=C\C/C=C\C/C=C\C/C=C\C/C=C\CCCC(=O)Oc1ccc(/C=C/C(=O)NCC(=O)N[C@H](C(=O)N[C@H](CCC(=O)OCC)C(=O)OCC)C(C)C)cc1OC [Compound 23, Diethyl ((E)-3-(4-(((5Z,8Z,11Z,14Z,17Z)-Icosa-5,8,11,14,17-pentaenoyl)oxy)-3-methoxyphenyl)acryloyl)glycyl-L-valyl-D-glutamate] | 105 µM (≈ 86.1 µg/mL) |  | 105 ± 22.8 nM | 1.30 fold | 1.30 ± 0.26 | 1.02 ± 0.08 | no activity | amplified | significantly diminished production | increased secretion | slightly increased | most notable | 4 factor | augmented |  |  |  | 
3 | CCOC(=O)CC[C@@H](NC(=O)[C@@H](NC(=O)CNC(=O)/C=C/c1ccc(OC(=O)CO[C@H]2CC[C@@]3(C)C(=CC[C@H]4[C@@H]5CC[C@H]([C@H](C)CCCC(C)C)[C@@]5(C)CC[C@@H]43)C2)c(OC)c1)C(C)C)C(=O)OCC [Compound 26, Diethyl ((E)-3-(4-(2-(((8S,9S,10R,13R,14S,17R)-10,13-Dimethyl-17-((R)-6-methylheptan-2-yl)-2,3,4,7,8,9,10,11,12,13,14,15,16,17-tetradecahydro-1H-cyclopenta[a]phenanthren-3-yl)oxy)acetoxy)-3-methoxyphenyl)acryloyl)glycyl-L-valyl-D-glutamate] |  |  | 12200 nM | 2.39 fold | 2.39 ± 0.27 | 1.34 ± 0.05 | 1.34 fold | amplified |  |  |  |  |  |  | 12200 nM | higher production | comparable to MDP | smaller increases

Source: PMC11472310, “Distinctive Immune Signatures Driven by Structural Alterations in Desmuramylpeptide NOD2 Agonists” (Journal of Medicinal Chemistry, 2024)
